The source of these data is BindingDB's records for doi:10.1016/j.bmc.2020.115818 (Taisho Pharmaceutical, 2020).

The structures appear in SMILES notation.

The experiment in a line: Inhibition of F protein in Respiratory syncytial virus A2 infected in HepG2 cells assessed as reduction in virus-induced cytopathic effect incubated for 4 days by XTT assay. On the technique in general: Protection from cytopathic effect is a common read-out in antiviral testing.

The EC50 is the concentration giving half of the maximal effect. As to `Cc1ccc2c(c1)C(=O)N1CCCC[C@H]1c1cc3nc([C@H]4C[C@H](O)C4)cc(n3n1)N(C)CCNC(=O)CO2`, the half-maximal effective concentration (EC50) came out at 0.77 nM.
